Measurements reported in patent US11510928B2, “Use of mirtazapine in the treatment of inflammatory disorders, autoimmune disease and PBC” (UTI Limited Partnership, priority 2017, dated 2022).

What was measured:
[1] = system: PBC patients; experiment: THIN database cohort study of PBC patients: decompensation, liver transplant and mortality free survival by drug usage; assay type: in vivo, human
Description: We conducted a cohort study using The Health Improvement Network (THIN). THIN is one of the largest medical databases in the UK^8, consisting of prospectively gathered electronic medical records from over 11.1 million patients^8. […] Data from participant general practitioners across the UK is exported to the THIN administrators and database, which is updated every 3 months^11. The THIN database records demographic data and clinical events using Read codes, prescription medications, and laboratory values^12.
We identified patients with PBC Read code “J6160” from April 1974 until May 2007. This cohort was followed until May 2012. We excluded patients having overlap syndrome with autoimmune hepatitis or primary sclerosing cholangitis. The first code of PBC identified in the THIN database was considered the index (ie. diagnosis) date. FIG. 10 provides a flow diagram illustrating the selection of the study population. The primary outcome was the first occurrence of one of the three events following the diagnosis of PBC: (1) decompensation of cirrhosis (ascites, spontaneous bacterial peritonitis, hepatic encephalopathy, hepatorenal syndrome, variceal bleeding, jaundice, or hepatocellular carcinoma); (2) liver transplantation; or (3) death.
Read codes were used to identify patients with chronic depression disorder. Chronic depression was defined as follows: (1) never diagnosed with chronic depression; (2) past depression diagnosis prior to 90 days from PBC diagnosis; and (3) current depression diagnosis if a diagnosis was made within 90 days before or after a PBC diagnosis. Using THIN database therapy files, we assessed the impact of anti-depressant medications on outcomes of PBC patients (mortality, decompensation, and liver transplant).
For each anti-depressant medication, use was defined as follows: (1) never used the medication; (2) past use as defined as a previous code for medication use prior to 90 days of PBC diagnosis; and (3) current medication user if the medication code was identified within 90 days before or after a PBC diagnosis. We assessed the effect of each anti-depressant medication on study outcomes separately. Antidepressants were classified as typical or atypical and stratified accordingly. Atypical antidepressants include: Agomelatine, Bupropion and Mirtazapine. While typical antidepressants include the following groups: (a) Selective Serotonin Reuptake Inhibitors (SSRI): Citalopram, Escitalopram, Fluoxetine, Fluvoxamine, Paroxetine and Sertraline; (b) […] (SNRI): Desvenlafaxine, Duloxetine, Minacipran and Venlafaxine; (c) Serotonin modulators: Nefazodone, Trazodone and Vilazodone; (d) Tricyclics and tetracyclics: Amitriptyline, Amoxapine, Clomipramine, Desipramine, Doxepin, Imipramine, Maprotiline, Nortriptyline and Protriptyline, Trimiprramine; (e) Monamine oxidase inhibitors: Isocarboxazid, Phenelzine, Selegiline and Tranylcypromine.
We assessed age at diagnosis of PBC, sex, and the presence of coexisting liver disease (ie. chronic hepatitis either viral, alcoholic, or fatty liver disease; yes/no). Smoking status was classified (current, former, never smoked, or unknown status) at the time of PBC diagnosis, alcohol consumption was classified (current, former, never consumed alcohol, or unknown status) at PBC diagnosis. Ursodeoxycholic acid (UDCA) usage (ever/never recorded) was also determined.
In our primary analysis, we assessed demographic, clinical, and medication variables in the PBC cohort according to depression status. Where appropriate, we used the Fisher Exact test or Chi-Square test for categorical data, and the Kruskal-Wallis or Student's t-test for continuous data. Univariate analysis using Log Rank test and multivariate Cox Proportional Regression models were used to assess the impact of depression or anti-depressant medications on PBC outcomes as defined by death, decompensated cirrhosis, or liver transplant. […]

[2] = system: hepatic cytokine and chemokine milieu; experiment: Hepatic and plasma cytokine/chemokine levels after mirtazapine treatment (Luminex, LEGENDplex); assay type: in vivo, mouse
Experimental: Male 8-10 week old C57BL/6 mice (Jackson Labs, Bar Harbor, Me.) were used. All procedures were approved by the University of Calgary Animal Care Committee (protocol numbers AC14-0129 and AC14-0128) and were performed in accordance with the guidelines of the Canadian Council on Animal Care. […] Mirtazapine was suspended in 1% aqueous solution of Tween 80, whereas the control group received 1% aqueous solution of Tween 80. Blood and liver samples were collected 5 hours post-mirtazapine treatment (or 16 hours post-Con A treatment). The detailed experimental protocols, lists of antibodies and reagents used, flow cytometry gating, and immune cell phenotyping strategies, are described herein. To delineate the effect of mirtazapine treatment on hepatic cytokine/chemokine expression a Luminex® assay was used using methods as previously described. […] A panel of mouse cytokines/chemokines were simultaneously measured in liver homogenate samples using a mouse MILLIPLEX kit (Millipore, USA) according to the manufacturer's protocol. The multiplexing analysis was performed using the Luminex 100 system (Luminex®, USA; Eve Technologies Corporation, Calgary, Canada). Total protein concentrations in liver homogenates were quantified using a BCA Protein Assay kit (Pierce, USA) according to manufacturers instructions. Results were expressed as pg of analyte per mg of protein. Additional plasma and hepatic measurements were made using a bead-based LEGENDplex immunoassay. Plasma and hepatic levels of CXCL10/IP-10 and CXCL9/Mig were measured using BioLegend's LEGENDplex™ bead-based immunoassays in a 96-well v-bottom microplate, according to the manufacturer's protocol. At the end of the assay, all samples were transferred from the plate to FACS tubes and read on a flow cytometer (Attune® Acoustic Focusing Cytometer). After data acquisition, flow cytometry standard (FCS) files were analyzed using Biolegend's LEGENDplex data analysis software to calculate the concentrations of individual chemokines, and results were expressed as pg of analyte per mg of protein. Alternatively, the flow cytometry standard (FCS) files were analyzed using FlowJo software (Treestar, San Carlos, Calif.).

[3] = usage prior to PBC diagnosis vs none
[4] = pilot study, 4 hrs post-treatment, 20 mg/kg (FIG. 13)

## CN1CCN2c3ncccc3Cc3ccccc3C2C1 (centres unmarked) [Mirtazapine]
[1]; PBC cohort
  Protective effect against liver decompensation, transplantation, or death: over four-fold protective effect
[1]; PBC patients who had ever used the drug
  Requirement of liver transplant: None of the PBC patients who had ever used mirtazapine required liver transplant
[1]; current usage (after PBC diagnosis) vs none
  Multivariate model-2 HR (include age, gender, alcohol, URSO, depression, mirtazapine): 0.23
[1]; current usage vs none
  Univariate HR, 10-year decompensation, liver transplant and mortality free survival: 0.22
[1]; current usage, outcome assessed separately
  Adjusted HR, mortality: 0.22
[1]; current usage, outcome assessed separately, not significant
  Adjusted HR, liver decompensation: 0.22
[1]; sensitivity analysis: only patients using UDCA (n=793), current usage
  Adjusted HR, decompensated cirrhosis, liver transplant and mortality: 0.21
[1]; [3]
  Multivariate model-2 HR (include age, gender, alcohol, URSO, depression, mirtazapine): 0.94
  Univariate HR, 10-year decompensation, liver transplant and mortality free survival: 0.84
[2]; 5 hours post-treatment
  Plasma levels of CXCL10/IP-10 and CXCL9/MIG vs vehicle: significantly increased
[2]; 5 hours post-treatment, ip
  Increase in hepatic CXCL9 level vs vehicle: ~7 fold
  Increase in hepatic CXCL10 level vs vehicle: ~120 fold
  Increase in hepatic GM-CSF level vs vehicle: ~1.5 fold
  Increase in hepatic IFNγ level vs vehicle: ~8 fold
  Increase in hepatic IL-1β level vs vehicle: ~1.5 fold
  Increase in hepatic IL-4 level vs vehicle: ~30 fold
  Increase in hepatic IL-5 level vs vehicle: ~2 fold
  Increase in hepatic IL-6 level vs vehicle: ~1.5 fold
  Increase in hepatic IL-12 level vs vehicle: ~1.5 fold
  Increase in hepatic IL-12p40 level vs vehicle: ~1.5 fold
  Increase in hepatic IL-12p70 level vs vehicle: ~1.5 fold
  Increase in hepatic IL-15 level vs vehicle: ~1.5 fold
  Increase in hepatic IL-17 level vs vehicle: ~1.5 fold
  Increase in hepatic TNFα level vs vehicle: ~1.5 fold
[2]; 5 hours post-treatment, data not shown
  Hepatic levels of IL-2, IL-10, IL-13, IL-7, IL-9, M-CSF, G-CSF, LIF, IL-3, CCL3/MIP-1α, CCL4/MIP-1β, CXCL2/MIP-2, CCL11/Eotaxin-1, CCL5/RANTES: unaltered
[2]; 5 hours post-treatment, in words
  Hepatic levels of the chemokines CXCL10/IP-10 and CXCL9/MIG vs vehicle: striking increases
[2]; after mirtazapine treatment
  Hepatic levels of CCL2/MCP-1, CCL4/MIP-1β, CCL5/RANTES, CCL11/eotaxin-1, CCL3/MIP-1a: no significant changes
[2]; [4]
  Hepatic IL-10 levels: unchanged
  Increase in hepatic IL-4 levels: 50 fold
